The results in this text go back to patent US20240189289A1, “INHIBITORS OF EPHB3 SIGNALING” (The Brigham and Women`s Hospital, Inc., priority 2021, published 2024).

The solubility is the concentration that dissolves in the medium under given conditions.

SMILES strings stand for the structures. Where only a bound is given, the exact number is not on record here.

Series [1] in a line: MTT and ATP-viability assays. Type of series: cell-based. The conditions noted are these: 30 μM.
Series [2] has as its target T1, EphB3 (Homo sapiens, UniProt P54753).
T1 sequence (P54753 34-998): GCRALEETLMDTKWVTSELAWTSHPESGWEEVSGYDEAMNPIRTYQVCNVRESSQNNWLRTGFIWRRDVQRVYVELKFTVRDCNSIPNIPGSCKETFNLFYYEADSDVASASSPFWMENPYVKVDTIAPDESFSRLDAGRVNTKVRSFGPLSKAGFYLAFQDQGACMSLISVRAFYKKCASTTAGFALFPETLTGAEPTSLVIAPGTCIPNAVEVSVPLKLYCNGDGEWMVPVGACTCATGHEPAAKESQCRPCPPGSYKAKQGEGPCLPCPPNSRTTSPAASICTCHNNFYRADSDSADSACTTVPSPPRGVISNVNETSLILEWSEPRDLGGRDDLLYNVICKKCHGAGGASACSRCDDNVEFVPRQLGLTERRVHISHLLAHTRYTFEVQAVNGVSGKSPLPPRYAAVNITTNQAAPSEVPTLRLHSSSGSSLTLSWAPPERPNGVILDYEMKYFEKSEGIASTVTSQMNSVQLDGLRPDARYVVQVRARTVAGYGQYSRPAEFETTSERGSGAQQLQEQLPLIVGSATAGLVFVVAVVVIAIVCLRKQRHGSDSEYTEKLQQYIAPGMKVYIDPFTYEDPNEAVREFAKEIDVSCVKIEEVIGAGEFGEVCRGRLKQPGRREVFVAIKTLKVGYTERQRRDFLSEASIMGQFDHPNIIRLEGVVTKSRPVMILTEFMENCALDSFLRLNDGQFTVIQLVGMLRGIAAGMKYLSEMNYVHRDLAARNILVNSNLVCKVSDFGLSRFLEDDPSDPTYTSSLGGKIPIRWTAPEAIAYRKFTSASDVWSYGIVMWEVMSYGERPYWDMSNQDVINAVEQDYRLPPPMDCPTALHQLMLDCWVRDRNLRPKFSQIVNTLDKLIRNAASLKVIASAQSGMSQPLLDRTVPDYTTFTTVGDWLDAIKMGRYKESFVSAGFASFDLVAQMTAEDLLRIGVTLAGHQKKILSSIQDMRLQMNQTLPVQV
In words: EphB3 radiometric kinase activity assay (33P ATP filter binding). Type of series: biochemical. The procedure: EphB3 radiometric kinase activity assay. To study the EphB3 kinase activity, a radioactive filter binding assay using 33P ATP was performed as described at the […] International Centre for Kinase profiling. […] The mix was harvested onto P81 filter plates and counts were read on a Topcount NXT.

A short description of series [3]: Aqueous solubility. Conditions: aqueous medium at pH 7.4 (buffer not specified), pH 7.4, aqueous buffer; read-out: aqueous solubility. Type of series: physicochemical.
The target of series [4] is T2, EphB4 (Homo sapiens, UniProt P54760).
T2 sequence (P54760 16-987): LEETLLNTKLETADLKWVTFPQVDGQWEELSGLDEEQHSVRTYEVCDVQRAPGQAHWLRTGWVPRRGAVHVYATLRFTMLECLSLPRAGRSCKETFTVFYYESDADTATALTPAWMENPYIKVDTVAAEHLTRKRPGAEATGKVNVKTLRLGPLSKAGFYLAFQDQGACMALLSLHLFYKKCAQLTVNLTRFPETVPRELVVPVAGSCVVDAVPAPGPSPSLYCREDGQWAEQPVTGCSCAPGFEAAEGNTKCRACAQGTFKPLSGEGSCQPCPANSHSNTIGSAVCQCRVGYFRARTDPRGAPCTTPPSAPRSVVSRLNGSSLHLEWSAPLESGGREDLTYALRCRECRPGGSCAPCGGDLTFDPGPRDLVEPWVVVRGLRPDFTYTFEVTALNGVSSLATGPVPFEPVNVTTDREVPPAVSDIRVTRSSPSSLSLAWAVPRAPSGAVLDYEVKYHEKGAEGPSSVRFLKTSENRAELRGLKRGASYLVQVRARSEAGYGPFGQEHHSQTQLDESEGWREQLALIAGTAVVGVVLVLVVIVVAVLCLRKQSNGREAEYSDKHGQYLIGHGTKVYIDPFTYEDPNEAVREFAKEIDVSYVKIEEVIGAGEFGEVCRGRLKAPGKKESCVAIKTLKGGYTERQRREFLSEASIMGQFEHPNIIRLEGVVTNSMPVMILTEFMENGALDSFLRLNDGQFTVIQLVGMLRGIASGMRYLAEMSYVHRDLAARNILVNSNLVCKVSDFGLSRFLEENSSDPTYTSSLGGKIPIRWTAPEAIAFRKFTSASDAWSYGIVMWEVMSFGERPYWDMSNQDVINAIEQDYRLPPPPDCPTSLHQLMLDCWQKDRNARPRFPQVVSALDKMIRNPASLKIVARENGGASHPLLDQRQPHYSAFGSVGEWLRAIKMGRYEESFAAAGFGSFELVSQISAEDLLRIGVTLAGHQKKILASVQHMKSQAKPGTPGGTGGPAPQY
In words: Eph receptor kinase activity assay (radiometric), EphB4. In kind it is biochemical.

Series [5] has as its target EphA4 (Homo sapiens, UniProt P54764). In words: Eph receptor kinase activity assay (radiometric), EphA4. In kind it is biochemical.
The test system of series [6] is astrocytes. In words: Mitochondrial ROS measurement (MitoSOX) in astrocytes. Type of series: cell-based, mouse. The conditions noted are these: Rotenone and Antimycin A given together. How it is done:
Mitochondrial ROS measurement. 50,000 astrocytes were seeded per well in 96-well black plates and rested for 2 days in complete medium, followed by activation or inhibitor pretreatment for 24 h. MitoSOX red (Thermo Fisher Scientific, #M36008) was used to stain for mitochondrial ROS for 10 min following the manual and the signal was detected on Infinite M1000 PRO Microplate Reader (Tecan). The fluorescent signal was normalized to cell number estimated using CyQUANT cell proliferation assay kit (Invitrogen, #C7026) first and then compared to control group for data analysis.

Chain of EphA4 (P54764 20-986): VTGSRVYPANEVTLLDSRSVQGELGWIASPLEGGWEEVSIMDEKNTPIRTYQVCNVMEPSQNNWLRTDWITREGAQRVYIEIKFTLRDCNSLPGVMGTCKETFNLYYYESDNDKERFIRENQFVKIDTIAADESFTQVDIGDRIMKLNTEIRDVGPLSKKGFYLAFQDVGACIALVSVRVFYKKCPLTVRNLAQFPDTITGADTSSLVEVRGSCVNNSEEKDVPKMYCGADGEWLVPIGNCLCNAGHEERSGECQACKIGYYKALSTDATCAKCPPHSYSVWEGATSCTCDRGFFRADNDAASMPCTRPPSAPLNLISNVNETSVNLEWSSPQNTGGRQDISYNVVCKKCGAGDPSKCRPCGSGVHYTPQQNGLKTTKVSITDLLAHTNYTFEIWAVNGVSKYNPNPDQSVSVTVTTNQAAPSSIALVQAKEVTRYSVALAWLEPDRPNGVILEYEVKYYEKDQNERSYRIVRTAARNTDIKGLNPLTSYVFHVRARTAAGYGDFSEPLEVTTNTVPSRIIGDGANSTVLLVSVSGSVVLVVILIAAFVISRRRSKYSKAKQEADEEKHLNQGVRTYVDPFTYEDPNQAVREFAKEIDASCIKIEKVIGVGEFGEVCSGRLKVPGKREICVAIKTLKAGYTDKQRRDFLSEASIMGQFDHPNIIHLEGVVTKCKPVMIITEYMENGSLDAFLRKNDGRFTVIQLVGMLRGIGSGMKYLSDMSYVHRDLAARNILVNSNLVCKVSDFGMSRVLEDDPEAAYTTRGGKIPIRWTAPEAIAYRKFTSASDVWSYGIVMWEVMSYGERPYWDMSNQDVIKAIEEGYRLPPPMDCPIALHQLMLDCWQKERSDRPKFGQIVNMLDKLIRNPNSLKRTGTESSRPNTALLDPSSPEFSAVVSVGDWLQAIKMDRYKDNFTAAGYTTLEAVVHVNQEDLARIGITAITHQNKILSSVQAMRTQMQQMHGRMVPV

On to `O=C(Nc1ccccc1Cl)c1cnc2ccc(C3CCNCC3)cn12` [A-38, N-(2-chlorophenyl)-6-(piperidin-4-yl)imidazo[1,2-a]pyridine-3-carboxamide], for which the “cytotoxicity in MTT and ATP-viability assays” value in series [1] is reported as “no cytotoxicity”. Further, the remaining activity at 0.01 µM in series [2] (10 nM compound, read-out: EphB3 % act 10 nM) came out at 37%; in series [4] (10 nM compound, read-out: EphB4 % act 10 nM) it was 68%. Further, the remaining activity at 0.1 µM in series [2] (100 nM compound, read-out: EphB3 % act 100 nM) stood at 14%; in series [4] (100 nM compound, read-out: EphB4 % act 100 nM) it was 9%. The remaining activity at 0.3 µM in series [2] (300 nM compound, read-out: EphB3 % act 300 nM) worked out at 7%; in series [4] (300 nM compound, read-out: EphB4 % act 300 nM) it was 3%. The solubility in series [3] is more than 10000 µg/mL. Also, in series [5] (10 nM compound), the “EphA4 % act 10 nM” value was determined as 32%. The “EphA4 % act 100 nM” value in series [5] (100 nM compound) came out at 14%. Besides, in series [5] (300 nM compound), the “EphA4 % act 300 nM” value was determined as 9%.
For `C=C(C)[C@H]1Cc2c(ccc3c2O[C@@H]2COc4cc(OC)c(OC)cc4[C@@H]2C3=O)O1` [Rotenone, reference compound], the “mitochondrial ROS levels” value in series [6] is given as “increases mitochondrial ROS levels”.
